Structures can show the parent of a compound that is named as a salt. Residues, ends and D or L forms follow the SMILES beside them.
How the values were obtained:
[1] = target: T1, HGFA (Homo sapiens, UniProt Q04756); test: HGFA enzyme inhibition (published assays); format: biochemical
T1 sequence (Q04756 373-655): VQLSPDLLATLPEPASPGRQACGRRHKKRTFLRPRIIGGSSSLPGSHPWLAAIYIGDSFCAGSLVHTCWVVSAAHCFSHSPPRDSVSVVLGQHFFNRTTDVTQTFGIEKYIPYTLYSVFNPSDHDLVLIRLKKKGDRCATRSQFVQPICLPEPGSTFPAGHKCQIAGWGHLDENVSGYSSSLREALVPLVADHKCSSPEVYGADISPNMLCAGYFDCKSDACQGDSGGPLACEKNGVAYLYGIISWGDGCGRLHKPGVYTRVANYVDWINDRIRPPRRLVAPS

[2] = target: T2, Matriptase (Homo sapiens, UniProt Q9Y5Y6); test: Matriptase enzyme inhibition (published assays); format: biochemical
T2 sequence (Q9Y5Y6 1-855): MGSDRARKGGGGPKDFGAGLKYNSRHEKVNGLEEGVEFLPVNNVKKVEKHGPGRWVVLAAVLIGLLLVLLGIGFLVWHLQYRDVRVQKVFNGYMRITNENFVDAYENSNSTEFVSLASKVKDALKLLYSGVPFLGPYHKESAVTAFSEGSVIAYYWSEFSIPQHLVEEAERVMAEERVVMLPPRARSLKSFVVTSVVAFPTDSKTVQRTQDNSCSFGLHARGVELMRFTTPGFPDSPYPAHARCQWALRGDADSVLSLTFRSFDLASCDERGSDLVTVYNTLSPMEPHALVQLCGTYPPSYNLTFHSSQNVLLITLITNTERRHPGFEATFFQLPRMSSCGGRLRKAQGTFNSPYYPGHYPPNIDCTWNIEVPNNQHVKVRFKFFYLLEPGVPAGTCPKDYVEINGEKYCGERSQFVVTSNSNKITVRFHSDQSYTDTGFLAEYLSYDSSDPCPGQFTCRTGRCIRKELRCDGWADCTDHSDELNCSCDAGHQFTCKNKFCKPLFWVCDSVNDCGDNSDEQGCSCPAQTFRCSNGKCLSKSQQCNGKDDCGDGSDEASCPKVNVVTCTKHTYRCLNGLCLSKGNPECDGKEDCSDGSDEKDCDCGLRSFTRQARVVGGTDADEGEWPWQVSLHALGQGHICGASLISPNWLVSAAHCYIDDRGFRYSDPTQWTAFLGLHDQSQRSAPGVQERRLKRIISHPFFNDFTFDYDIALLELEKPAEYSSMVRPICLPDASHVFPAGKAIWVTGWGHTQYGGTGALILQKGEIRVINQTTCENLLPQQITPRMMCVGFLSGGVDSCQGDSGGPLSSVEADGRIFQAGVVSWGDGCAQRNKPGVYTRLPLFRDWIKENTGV

[3] = target: Hepsin (Homo sapiens, UniProt P05981); test: Hepsin enzyme inhibition (published assays); format: biochemical
[4] = test system: VSV-SARS-CoV-2-Spike protein Pseudotype virus; test: microbe, parasite or virus in culture; format: cell-based; conditions: read-out: VSV-SARS-CoV-2 Calu-3 EC50
[5] = target: Thrombin (Homo sapiens, UniProt P00734); test: Thrombin enzyme inhibition (published assays); format: biochemical
[6] = target: Factor Xa (Homo sapiens, UniProt P00742); test: Factor Xa enzyme inhibition (published assays); format: biochemical
[7] = target: TMPRSS2 protease domain (Homo sapiens, UniProt O15393); format: biochemical
[8] = target: Calpain 1 (Homo sapiens, UniProt P07384); test: Protease profiling panel, 10-dose IC50; format: biochemical
[9] = target: Cathepsin B (Homo sapiens, UniProt P07858); test: Protease profiling panel, 10-dose IC50; format: biochemical
[10] = target: Cathepsin C (Homo sapiens, UniProt P53634); test: Protease profiling panel, 10-dose IC50; format: biochemical
[11] = target: Cathepsin H (Homo sapiens, UniProt P09668); test: Protease profiling panel, 10-dose IC50; format: biochemical
[12] = target: Cathepsin L (Homo sapiens, UniProt P07711); test: Protease profiling panel, 10-dose IC50; format: biochemical
[13] = target: Cathepsin S (Homo sapiens, UniProt P25774); test: Protease profiling panel, 10-dose IC50; format: biochemical
[14] = target: Cathepsin V (Homo sapiens, UniProt O60911); test: Protease profiling panel, 10-dose IC50; format: biochemical
[15] = target: Papain (Carica papaya, UniProt P00784); test: Protease profiling panel, 10-dose IC50; format: biochemical
[16] = test system: wild-type SARS-CoV-2; test: microbe, parasite or virus in culture; format: cell-based; conditions: Severe acute respiratory syndrome coronavirus 2, Calu-3, 72 h, read-out: SARS-CoV-2 Wild-type Calu-3 IC50 (nM)
[17] = target: FXa (Homo sapiens, UniProt P00742); test: Protease profiling panel, 10-dose IC50; format: biochemical
[18] = target: Kallikrein 5 (Homo sapiens, UniProt Q9Y337); test: Protease profiling panel, 10-dose IC50; format: biochemical
[19] = target: Kallikrein 7 (Homo sapiens, UniProt P49862); test: Protease profiling panel, 10-dose IC50; format: biochemical
[20] = target: Kallikrein 12 (Homo sapiens, UniProt Q9UKR0); test: Protease profiling panel, 10-dose IC50; format: biochemical
[21] = target: Kallikrein 13 (Homo sapiens, UniProt Q9UKR3); test: Protease profiling panel, 10-dose IC50; format: biochemical
[22] = target: Kallikrein 14 (Homo sapiens, UniProt Q9P0G3); test: Protease profiling panel, 10-dose IC50; format: biochemical
[23] = target: Matriptase 2 (Homo sapiens, UniProt Q8IU80); test: Protease profiling panel, 10-dose IC50; format: biochemical; conditions: values lower than 1.02E-09 M estimated from best curve
[24] = target: Plasma Kallikrein (Homo sapiens, UniProt P03952); test: Protease profiling panel, 10-dose IC50; format: biochemical
[25] = target: Plasmin (Homo sapiens, UniProt P00747); test: Protease profiling panel, 10-dose IC50; format: biochemical
[26] = target: Thrombin a (Homo sapiens, UniProt P00734); test: Protease profiling panel, 10-dose IC50; format: biochemical
[27] = target: Trypsin (Bos taurus, UniProt P00760); test: Protease profiling panel, 10-dose IC50; format: biochemical; conditions: values lower than 1.02E-09 M estimated from best curve
[28] = target: Tryptase b2 (Homo sapiens, UniProt P20231); test: Protease profiling panel, 10-dose IC50; format: biochemical; conditions: values lower than 1.02E-09 M estimated from best curve
[29] = target: Tryptase g1 (Homo sapiens, UniProt Q9NRR2); test: Protease profiling panel, 10-dose IC50; format: biochemical; conditions: values lower than 1.02E-09 M estimated from best curve
[30] = target: Urokinase (Homo sapiens, UniProt P00749); test: Protease profiling panel, 10-dose IC50; format: biochemical
[31] = target: Kallikrein 1 (Homo sapiens, UniProt P06870); test: Protease profiling panel, 10-dose IC50; format: biochemical
[32] = target: Proteinase A; format: biochemical
[33] = target: Caspase 1 (Homo sapiens, UniProt P29466); test: Protease profiling panel, 10-dose IC50; format: biochemical
[34] = target: Caspase 2 (Homo sapiens, UniProt P42575); test: Protease profiling panel, 10-dose IC50; format: biochemical
[35] = target: Caspase 4 (Homo sapiens, UniProt P49662); test: Protease profiling panel, 10-dose IC50; format: biochemical
[36] = target: Caspase 5 (Homo sapiens, UniProt P51878); test: Protease profiling panel, 10-dose IC50; format: biochemical
[37] = target: Caspase 8 (Homo sapiens, UniProt Q14790); test: Protease profiling panel, 10-dose IC50; format: biochemical
[38] = target: Caspase 9 (Homo sapiens, UniProt P55211); test: Protease profiling panel, 10-dose IC50; format: biochemical
[39] = target: Caspase 10 (Homo sapiens, UniProt Q92851); test: Protease profiling panel, 10-dose IC50; format: biochemical
[40] = target: Caspase 11 (Mus musculus, UniProt P70343); test: Protease profiling panel, 10-dose IC50; format: biochemical
[41] = target: Caspase 6 (Homo sapiens, UniProt P55212); test: Protease profiling panel, 10-dose IC50; format: biochemical
[42] = target: Caspase 7 (Homo sapiens, UniProt P55210); test: Protease profiling panel, 10-dose IC50; format: biochemical

Factor Xa, sequence (P00742 235-488 limits assumed): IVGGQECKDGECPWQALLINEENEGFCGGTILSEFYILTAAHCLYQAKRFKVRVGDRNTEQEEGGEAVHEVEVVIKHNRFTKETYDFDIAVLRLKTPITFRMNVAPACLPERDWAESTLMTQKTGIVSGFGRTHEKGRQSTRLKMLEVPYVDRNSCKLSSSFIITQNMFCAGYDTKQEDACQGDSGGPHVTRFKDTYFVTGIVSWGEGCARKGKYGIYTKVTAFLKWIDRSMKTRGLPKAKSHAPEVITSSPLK
Factor Xa, sequence (P00742 41-179 partner limits assumed): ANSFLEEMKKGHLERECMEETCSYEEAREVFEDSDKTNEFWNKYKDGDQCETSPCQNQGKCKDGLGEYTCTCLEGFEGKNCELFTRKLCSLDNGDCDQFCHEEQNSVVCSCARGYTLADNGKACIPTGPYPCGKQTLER
Hepsin, sequence (P05981 whole entry): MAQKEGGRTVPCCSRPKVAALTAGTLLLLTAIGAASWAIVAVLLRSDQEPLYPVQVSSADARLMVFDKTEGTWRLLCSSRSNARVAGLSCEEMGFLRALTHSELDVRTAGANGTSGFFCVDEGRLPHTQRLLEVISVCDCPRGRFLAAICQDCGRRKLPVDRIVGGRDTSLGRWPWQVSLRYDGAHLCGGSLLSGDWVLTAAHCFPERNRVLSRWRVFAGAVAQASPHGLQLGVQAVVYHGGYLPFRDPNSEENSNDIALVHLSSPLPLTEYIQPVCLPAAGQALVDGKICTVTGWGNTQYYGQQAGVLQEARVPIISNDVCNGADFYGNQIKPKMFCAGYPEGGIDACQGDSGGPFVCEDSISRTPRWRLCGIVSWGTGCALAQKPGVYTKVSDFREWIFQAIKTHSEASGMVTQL
TMPRSS2 protease domain, sequence (O15393 256-492): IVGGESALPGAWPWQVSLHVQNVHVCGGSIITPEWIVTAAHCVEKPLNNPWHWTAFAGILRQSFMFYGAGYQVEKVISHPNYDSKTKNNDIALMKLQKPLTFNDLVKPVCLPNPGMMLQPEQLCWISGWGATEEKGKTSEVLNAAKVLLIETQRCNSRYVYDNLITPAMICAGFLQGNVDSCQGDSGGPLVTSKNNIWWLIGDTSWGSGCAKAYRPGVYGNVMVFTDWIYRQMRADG
Kallikrein 12, sequence (Q9UKR0 18-248, species assumed): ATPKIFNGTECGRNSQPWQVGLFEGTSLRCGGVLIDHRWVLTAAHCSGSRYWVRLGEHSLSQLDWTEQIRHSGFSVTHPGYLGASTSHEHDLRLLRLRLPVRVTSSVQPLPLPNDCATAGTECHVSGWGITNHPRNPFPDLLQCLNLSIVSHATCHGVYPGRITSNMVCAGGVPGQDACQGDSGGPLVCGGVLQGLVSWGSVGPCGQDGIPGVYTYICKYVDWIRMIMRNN
Caspase 5, sequence (P51878 137-434, species assumed): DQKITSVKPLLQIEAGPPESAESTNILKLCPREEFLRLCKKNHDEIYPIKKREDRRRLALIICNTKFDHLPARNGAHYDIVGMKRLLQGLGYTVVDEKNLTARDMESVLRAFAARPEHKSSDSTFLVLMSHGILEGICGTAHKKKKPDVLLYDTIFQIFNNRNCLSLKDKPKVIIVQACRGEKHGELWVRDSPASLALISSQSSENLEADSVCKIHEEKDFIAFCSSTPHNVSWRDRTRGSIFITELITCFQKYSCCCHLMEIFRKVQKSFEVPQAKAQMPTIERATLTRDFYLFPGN
Caspase 6, sequence (P55212 24-293, species assumed): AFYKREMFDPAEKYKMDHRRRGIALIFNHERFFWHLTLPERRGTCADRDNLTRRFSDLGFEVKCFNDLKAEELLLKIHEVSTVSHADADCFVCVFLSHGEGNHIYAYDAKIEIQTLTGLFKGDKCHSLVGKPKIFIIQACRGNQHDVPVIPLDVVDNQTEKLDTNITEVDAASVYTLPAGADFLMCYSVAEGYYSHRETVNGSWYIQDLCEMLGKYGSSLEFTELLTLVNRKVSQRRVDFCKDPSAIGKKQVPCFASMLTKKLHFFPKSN
Tryptase b2, sequence (P20231 31-275): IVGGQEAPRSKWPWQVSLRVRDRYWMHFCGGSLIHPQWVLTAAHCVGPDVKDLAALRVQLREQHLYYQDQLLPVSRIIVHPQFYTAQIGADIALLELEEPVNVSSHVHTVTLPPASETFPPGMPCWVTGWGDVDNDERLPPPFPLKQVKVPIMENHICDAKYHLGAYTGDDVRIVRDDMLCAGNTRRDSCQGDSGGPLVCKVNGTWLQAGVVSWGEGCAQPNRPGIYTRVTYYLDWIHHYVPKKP
Caspase 9, sequence (P55211 whole entry, species assumed): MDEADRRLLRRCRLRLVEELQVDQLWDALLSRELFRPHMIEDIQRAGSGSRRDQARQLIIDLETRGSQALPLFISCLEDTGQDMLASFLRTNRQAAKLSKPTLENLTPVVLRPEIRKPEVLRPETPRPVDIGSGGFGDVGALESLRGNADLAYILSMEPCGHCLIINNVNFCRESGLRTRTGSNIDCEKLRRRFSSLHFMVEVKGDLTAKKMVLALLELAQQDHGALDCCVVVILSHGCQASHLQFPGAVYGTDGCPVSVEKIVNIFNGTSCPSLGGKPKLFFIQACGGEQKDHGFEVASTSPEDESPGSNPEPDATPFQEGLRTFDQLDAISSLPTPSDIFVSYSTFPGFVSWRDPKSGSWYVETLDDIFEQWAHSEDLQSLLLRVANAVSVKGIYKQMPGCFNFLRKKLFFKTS
Plasma Kallikrein, sequence (P03952 391-638 limits assumed, species assumed): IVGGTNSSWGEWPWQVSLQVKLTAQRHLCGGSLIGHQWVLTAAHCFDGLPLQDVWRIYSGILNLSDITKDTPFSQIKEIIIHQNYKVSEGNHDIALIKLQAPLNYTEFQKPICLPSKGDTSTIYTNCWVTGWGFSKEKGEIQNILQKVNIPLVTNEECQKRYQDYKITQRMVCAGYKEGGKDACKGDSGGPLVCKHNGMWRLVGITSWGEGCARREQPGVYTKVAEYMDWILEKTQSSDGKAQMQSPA
Plasma Kallikrein, sequence (P03952 20-390 partner limits assumed, species assumed): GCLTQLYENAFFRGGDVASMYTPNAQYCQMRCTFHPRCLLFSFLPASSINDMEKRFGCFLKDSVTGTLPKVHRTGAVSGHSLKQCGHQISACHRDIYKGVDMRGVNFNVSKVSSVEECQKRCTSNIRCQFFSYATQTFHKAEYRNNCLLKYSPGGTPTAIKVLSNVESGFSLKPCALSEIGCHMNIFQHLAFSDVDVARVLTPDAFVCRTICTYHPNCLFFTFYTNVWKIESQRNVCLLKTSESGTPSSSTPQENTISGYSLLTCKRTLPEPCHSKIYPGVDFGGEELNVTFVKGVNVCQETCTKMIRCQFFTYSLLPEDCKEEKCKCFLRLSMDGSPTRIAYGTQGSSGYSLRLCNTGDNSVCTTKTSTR
Caspase 2, sequence (P42575 whole entry, species assumed): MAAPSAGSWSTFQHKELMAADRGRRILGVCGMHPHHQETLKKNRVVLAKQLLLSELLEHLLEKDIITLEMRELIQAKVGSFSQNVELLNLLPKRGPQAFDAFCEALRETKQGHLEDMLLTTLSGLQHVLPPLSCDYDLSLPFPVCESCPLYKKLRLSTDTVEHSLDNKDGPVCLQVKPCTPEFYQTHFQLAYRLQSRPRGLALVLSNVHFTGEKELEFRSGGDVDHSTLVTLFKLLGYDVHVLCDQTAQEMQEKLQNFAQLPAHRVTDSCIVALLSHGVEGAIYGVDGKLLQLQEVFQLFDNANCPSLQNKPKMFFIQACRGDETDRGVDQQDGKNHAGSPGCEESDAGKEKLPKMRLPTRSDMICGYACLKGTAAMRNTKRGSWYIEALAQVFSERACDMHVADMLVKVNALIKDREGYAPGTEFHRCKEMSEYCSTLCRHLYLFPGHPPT
FXa, sequence (P00742 235-488 limits assumed): as the sequence (P00742 235-488 limits assumed) above
FXa, sequence (P00742 41-179 partner limits assumed): as the sequence (P00742 41-179 partner limits assumed) above
Kallikrein 7, sequence (P49862 30-253, species assumed): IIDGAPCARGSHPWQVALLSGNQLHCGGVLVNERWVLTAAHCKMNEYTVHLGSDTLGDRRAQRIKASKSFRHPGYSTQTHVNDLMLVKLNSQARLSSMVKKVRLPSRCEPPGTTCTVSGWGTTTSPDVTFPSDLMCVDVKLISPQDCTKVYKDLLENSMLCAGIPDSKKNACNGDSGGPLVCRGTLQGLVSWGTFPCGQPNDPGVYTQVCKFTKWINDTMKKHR
Caspase 8, sequence (Q14790 217-479, species assumed): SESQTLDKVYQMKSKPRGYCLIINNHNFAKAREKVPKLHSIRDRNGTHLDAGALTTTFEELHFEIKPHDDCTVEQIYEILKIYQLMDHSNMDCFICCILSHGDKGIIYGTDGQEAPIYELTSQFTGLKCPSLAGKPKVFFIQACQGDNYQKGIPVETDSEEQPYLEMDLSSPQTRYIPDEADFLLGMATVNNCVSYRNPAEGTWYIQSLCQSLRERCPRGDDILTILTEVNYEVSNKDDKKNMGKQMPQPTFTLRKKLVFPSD
Cathepsin S, sequence (P25774 115-331, species assumed): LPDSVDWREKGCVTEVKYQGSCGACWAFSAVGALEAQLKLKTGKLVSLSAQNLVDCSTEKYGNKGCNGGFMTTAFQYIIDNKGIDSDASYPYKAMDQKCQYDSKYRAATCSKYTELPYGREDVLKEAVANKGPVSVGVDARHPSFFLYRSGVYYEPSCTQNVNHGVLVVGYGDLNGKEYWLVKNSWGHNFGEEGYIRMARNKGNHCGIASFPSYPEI

Compound	IC50 [1]	IC50 [2]	IC50 [3]	IC50 [5]	IC50 [6]	other results
CC(=O)N[C@@H](CC(C)C)C(=O)N[C@@H](CC(C)C)C(=O)N[C@@H](CCCNC(=N)N)C(=O)c1nccs1 [Compound 18, Ac-LLR-kt]	506 nM	56 nM	4.6 nM			EC50 [4]: 349 nM
CC(=O)N[C@@H](CO)C(=O)N[C@@H](CCC(N)=O)C(=O)N[C@@H](CC(C)C)C(=O)N[C@@H](CCCNC(=N)N)C(=O)c1nccs1 [Compound 11, Ac-SQLR-kt]	364 nM	18 nM	0.68 nM			
Cyclo(DQK)R-kbt [Compound 20]	16100 nM	7.7 nM	22 nM	> 20000 nM	> 20000 nM	EC50 [4]: 138 nM
Cyclo(DMK)R-kbt [Compound 19]	3240 nM	1 nM	5.9 nM	18500 nM	1390 nM	EC50 [4]: 119 nM
CC(=O)NC(CO)C(=O)NC(CCCCN)C(=O)NC(CC(C)C)C(=O)NC(CCCNC(=N)N)C(=O)c1nc2ccccc2s1 (centres unmarked) [Compound 3, Ac-SKLR-kbt]	66 nM	6.1 nM	0.32 nM	> 20000 nM	3800 nM	
Cyclo(allylGLY)R-kbt [Compound 21]	> 20000 nM	14 nM	20 nM	> 20000 nM	8810 nM	EC50 [4]: 565 nM
CC(=O)N[C@@H](CO)C(=O)N[C@@H](CCCCN)C(=O)N[C@@H](Cc1ccccc1)C(=O)N[C@@H](CCCNC(=N)N)C(=O)c1nccs1 [Compound 9, Ac-SKFR-kt]	114 nM	6.1 nM	17 nM	> 20000 nM	1060 nM	
(MCA)-K-KARSAFA-K-(DnP)						Km [7]: 0.6 ± 0.05 µM; kcat [7]: 0.07 s⁻¹
CC(C)C[C@H](NC(=O)[C@H]1O[C@@H]1C(=O)O)C(=O)NCCCCN=C(N)N [Compound E64, E64]						IC50 [8]: 47.1 nM; IC50 [9]: 7.33 nM; IC50 [10]: 1180 nM; IC50 [11]: 35.6 nM; IC50 [12]: 12.4 nM; IC50 [13]: 1.73 nM; IC50 [14]: 3.89 nM; IC50 [15]: 0.24 nM
CCC(CC)COC(=O)[C@H](C)N[P@](=O)(OC[C@H]1O[C@@](C#N)(c2ccc3c(N)ncnn23)[C@H](O)[C@@H]1O)Oc1ccccc1 [Remdesivir]						IC50 [16]: 1270 nM
CCOC(=O)c1ccc(OC(=O)CCCCCN=C(N)N)cc1 [Gabexate mesylate]						IC50 [17]: 1860 nM; IC50 [18]: 4940 nM; IC50 [19]: 43100 nM; IC50 [20]: 94.3 nM; IC50 [21]: 12200 nM; IC50 [22]: 651 nM; IC50 [23]: 391 nM; IC50 [24]: 148 nM; IC50 [25]: 265 nM; IC50 [26]: 1570 nM; IC50 [27]: 30.7 nM; IC50 [28]: 9.7 nM; IC50 [29]: 13.3 nM; IC50 [30]: 24.4 nM
CC(=O)N[C@@H](Cc1ccccc1)C(=O)N[C@@H](CC(C)C)C(=O)N[C@@H](Cc1ccccc1)C(=O)N[C@@H](CCCNC(=N)N)C(=O)c1nc2ccccc2s1 [Compound 12, Ac-FLFR-kbt]	228 nM	7.2 nM	2.9 nM	> 20000 nM	26 nM	
CC(=O)N[C@@H](Cc1c[nH]c2ccccc12)C(=O)N[C@@H](Cc1ccccc1)C(=O)N[C@@H](CCCNC(=N)N)C(=O)c1nc2ccccc2s1 [Compound 8, Ac-WFR-kbt]	329 nM	5.7 nM	7.6 nM	> 20000 nM	22 nM	
CC(=O)N[C@@H](CCCCN)C(=O)N[C@@H](CCC(N)=O)C(=O)N[C@@H](Cc1ccccc1)C(=O)N[C@@H](CCCNC(=N)N)C(=O)c1nccs1 [Compound 10, Ac-KQFR-kt]	116 nM	1.4 nM	1.2 nM	> 20000 nM	158 nM	
CC(=O)N[C@@H](CC(C)C)C(=O)N[C@@H](CC(C)C)C(=O)N[C@H](C=O)CCCNC(=N)N [Leupeptin]						IC50 [31]: 4610 nM; IC50 [32]: 244000 nM
CC[C@H](C)[C@H](NC(C)=O)C(=O)N[C@@H](CCC(=O)O)C(=O)N[C@H](C(=O)N[C@H](C=O)CC(=O)O)[C@@H](C)O [IETD-CHO] (Ac-IETD-aldehyde)						IC50 [33]: 29.2 nM; IC50 [34]: 547 nM; IC50 [35]: 2130 nM; IC50 [36]: 11.5 nM; IC50 [37]: 2.83 nM; IC50 [38]: 26.4 nM; IC50 [39]: 9.17 nM; IC50 [40]: 567 nM
CC(=O)N[C@@H](CC(=O)O)C(=O)N[C@@H](CCC(=O)O)C(=O)N[C@H](C(=O)N[C@H](C=O)CC(=O)O)C(C)C [DEVD-CHO]						IC50 [41]: 12.4 nM; IC50 [42]: 2.31 nM
CC(=O)N[C@H](Cc1c[nH]c2ccccc12)C(=O)N[C@@H](Cc1ccccc1)C(=O)N[C@@H](CCCNC(=N)N)C(=O)c1nc2ccccc2s1 [Compound 13, Ac-dWFR-kbt]	27 nM	2.6 nM	1.1 nM	3700 nM	98 nM	EC50 [4]: 32 nM
N=C(N)c1ccc2cc(OC(=O)c3ccc(N=C(N)N)cc3)ccc2c1 [Nafamostat, reference compound]	158 nM		0.9 nM	5020 nM	4570 nM	IC50 [16]: 220 nM
